Data set [1] deals with Candida albicans. As to the kind of experiment: Antifungal activity against fluconazole/ITC-susceptible Candida albicans ATCC MYA-2310 measured after 48 hrs by CLSI M27-A3 protocol based method. Particulars: ATCC MYA-2310, 48 h. Type of data set: functional.
Data set [2] in a line: Hemolytic activity in mouse RBC at 1.95 ug/ml after 1 hr relative to control. It counts as ADME, cell-based, Erythrocyte. The conditions noted are these: red blood cells (erythrocytes), read-out: Activity.
For the next data set, the system named is Aspergillus nidulans. Description: Antifungal activity against Aspergillus nidulans ATCC 38163 measured after 48 hrs by CLSI M38-A2 protocol based method. Type of data set: functional. The conditions noted are these: ATCC 38163, 48 h.
Data set [3] relates to Candida albicans. Description: Antifungal activity against fluconazole/ITC-susceptible Candida albicans ATCC MYA-2876 measured after 48 hrs by CLSI M27-A3 protocol based method. It counts as functional. Particulars: ATCC MYA-2876, 48 h.
Data set [4] can be described thus: Hemolytic activity in mouse RBC at […] ug/ml after 1 hr relative to control. Type of data set: ADME, cell-based, Erythrocyte. The conditions noted are these: red blood cells (erythrocytes), read-out: Activity.
For a further data set, the system named is Nakaseomyces glabratus. Description: Antifungal activity against Candida glabrata ATCC 2001 measured after 48 hrs by CLSI M27-A3 protocol based method. It counts as functional. Particulars: CBS 138, 48 h.
In data set [5] the test system is Candida albicans. As to the kind of experiment: Antifungal activity against fluconazole/ITC-resistant Candida albicans ATCC MYA-1237 measured after 48 hrs by CLSI M27-A3 protocol based method. It counts as functional. The conditions noted are these: ATCC MYA-1237, 48 h.
The test system of data set [6] is Candida albicans. As to the kind of experiment: Antifungal activity against fluconazole/ITC-resistant Candida albicans ATCC MYA-1003 measured after 48 hrs by CLSI M27-A3 protocol based method. It counts as functional. Particulars: ATCC MYA-1003, 48 h.
Data set [7] in a line: Hemolytic activity in mouse RBC at 7.8 ug/ml after 1 hr relative to control. Type of data set: ADME, cell-based, Erythrocyte. Particulars: red blood cells (erythrocytes), read-out: Activity.
Data set [8] relates to Candida albicans. Description: Antifungal activity against fluconazole/ITC-resistant Candida albicans ATCC 64124 measured after 48 hrs by CLSI M27-A3 protocol based method. It counts as functional. The conditions noted are these: ATCC 64124, 48 h.
Data set [9] deals with Candida albicans. Description: Antifungal activity against fluconazole/ITC-resistant Candida albicans ATCC 90819 measured after 48 hrs by CLSI M27-A3 protocol based method. Particulars: ATCC 90819, 48 h. It counts as functional.
Data set [10] is described as follows: Hemolytic activity in mouse RBC at 62.5 ug/ml after 1 hr relative to control. It counts as ADME, cell-based, Erythrocyte. The conditions noted are these: red blood cells (erythrocytes), read-out: Activity.
In another data set the test system is Aspergillus terreus. As to the kind of experiment: Antifungal activity against Aspergillus terreus ATCC MYA-3633 measured after 48 hrs by CLSI M38-A2 protocol based method. Type of data set: functional. The conditions noted are these: ATCC MYA-3633, 48 h.
Data set [11] concerns Candida albicans. As to the kind of experiment: Antifungal activity against fluconazole/ITC-resistant Candida albicans ATCC 10231 measured after 48 hrs by CLSI M27-A3 protocol based method. The conditions noted are these: ATCC 10231, 48 h. Type of data set: functional.
Another data set deals with Pichia kudriavzevii. As to the kind of experiment: Antifungal activity against Candida krusei ATCC 6258 measured after 48 hrs by CLSI M27-A3 protocol based method. It counts as functional. Particulars: ATCC 6258, 48 h.
The test system of the next data set is A549. Description: Cytotoxicity against human A549 cells after 24 hrs by resazurin based assay. The conditions noted are these: a549, 24 h. Type of data set: cell-based. (In general: Resazurin is reduced to fluorescent resorufin, in cell work by metabolically active cells.)
The next data set relates to Aspergillus flavus. Description: Antifungal activity against Aspergillus flavus ATCC MYA-3631 measured after 48 hrs by CLSI M38-A2 protocol based method. It counts as functional. Particulars: ATCC MYA-3631, 48 h.
The next data set concerns Candida parapsilosis. As to the kind of experiment: Antifungal activity against Candida parapsilosis ATCC 22019 measured after 48 hrs by CLSI M27-A3 protocol based method. Particulars: Lodderomyces parapsilosis, ATCC 22019, 48 h. Type of data set: functional.
A short description of data set [12]: Hemolytic activity in mouse RBC at 31.3 ug/ml after 1 hr relative to control. Particulars: red blood cells (erythrocytes), read-out: Activity. Type of data set: ADME, cell-based, Erythrocyte.
The test system of another data set is BEAS-2B. As to the kind of experiment: Cytotoxicity against human BEAS2B cells after 24 hrs by resazurin based assay. Type of data set: cell-based.
A short description of data set [13]: Hemolytic activity in mouse RBC at 3.9 ug/ml after 1 hr relative to control. It counts as ADME, cell-based, Erythrocyte. Particulars: red blood cells (erythrocytes), read-out: Activity.
The nature of data set [14]: Hemolytic activity in mouse RBC at […] after 1 hr relative to control. Also: tested at 0.48 µg/mL. It counts as ADME, cell-based, Erythrocyte. The conditions noted are these: red blood cells (erythrocytes), read-out: Activity.
The subject of a further data set is Enterococcus. Description: Antibacterial activity against vancomycin-resistant Enterococcus. It counts as functional, organism-based.
The next data set has as its system Staphylococcus aureus. Description: Antibacterial activity against methicillin-resistant Staphylococcus aureus. Type of data set: functional, organism-based.
In another data set the test system is Listeria monocytogenes. As to the kind of experiment: Antibacterial activity against Listeria monocytogenes. It counts as functional, organism-based.

Converted amounts (≈) assume the structure as drawn. The source made the active and inactive calls. The rule behind the calls is not given here.

For the compound `N=C(N)N/N=C/c1ccc(-c2cccc(/C=N/NC(=N)N)c2)cc1`, the MIC (in general, the lowest concentration that inhibits growth of the organism) in the data set with Candida albicans [1] is 3.9 µg/mL (≈ 12.1 µM); against Aspergillus nidulans, 7.8 µg/mL (≈ 24.2 µM); with Candida albicans [3], 3.9 µg/mL (≈ 12.1 µM); with Nakaseomyces glabratus, 3.9 µg/mL (≈ 12.1 µM); against Candida albicans [5], 7.8 µg/mL (≈ 24.2 µM); with Candida albicans [6] it was more than 31.3 µg/mL. Also, the MIC against Candida albicans [8] was 3.9 µg/mL (≈ 12.1 µM); against Candida albicans [9] it was more than 31.3 µg/mL; with Aspergillus terreus, 7.8 µg/mL (≈ 24.2 µM); in the data set with Candida albicans [11], 1.95 to 3.9 µg/mL (≈ 6.05 to 12.1 µM); in the data set with Pichia kudriavzevii, 1.95 µg/mL (≈ 6.05 µM); in the data set with Aspergillus flavus, more than 31.3 µg/mL. This compound had an MIC against Candida parapsilosis of 1.95 µg/mL (≈ 6.05 µM). Besides, the hemolysis at 1 h, 1.95 ug/ml in data set [2] turned out to be 1.1%. The hemolysis at 1 h, 15.6 ug/ml in data set [4] (at 15.6 µg/mL) was 3.8%. Also, the hemolysis at 1 h, 0.975 ug/ml in data set [4] amounted to 0%. Also, the hemolysis at 1 h, 7.8 ug/ml in data set [7] is 2.3%. For the same compound, in [10], the hemolysis at 1 h, 62.5 ug/ml amounted to 13.1%. Also, the cytotoxic concentration (CC50) (in general, the concentration that lowers cell viability or growth by half) in the data set on A549 came to 5.3 µg/mL (≈ 16.4 µM); in the data set with BEAS-2B it was 2.9 µg/mL (≈ 9 µM). Besides, in data set [12], the hemolysis at 1 h, 31.3 ug/ml amounted to 3.8%. The hemolysis at 1 h, 3.9 ug/ml in [13] was 1.2%. The hemolysis at 1 h, […] in data set [14] came to 0%.

For the compound `Brc1ccc(N/N=C/c2ccc(-c3ccc(/C=N/Nc4ccc(Br)cc4)cc3)cc2)cc1`, the MIC against Candida albicans [1], against Aspergillus nidulans, against Candida albicans [3], in the data set on Nakaseomyces glabratus, against Candida albicans [5] and in the data set on Candida albicans [6] was more than 31.3 µg/mL each time. Besides, the MIC in the data set with Candida albicans [8], in the data set on Candida albicans [9], with Aspergillus terreus, against Candida albicans [11], against Pichia kudriavzevii and in the data set on Aspergillus flavus was more than 31.3 µg/mL in each case. The same compound returned an MIC in the data set with Candida parapsilosis of 31.3 µg/mL (≈ 57.1 µM). In addition, the result in the data set with Enterococcus, in the data set with Staphylococcus aureus and in the data set with Listeria monocytogenes was inactive.

Take `Fc1ccc(N/N=C/c2ccc(-c3ccc(/C=N/Nc4ccc(F)cc4F)cc3)cc2)c(F)c1`: the MIC against Candida albicans [1], against Aspergillus nidulans, against Candida albicans [3], in the data set with Nakaseomyces glabratus, in the data set on Candida albicans [5] and with Candida albicans [6] was more than 31.3 µg/mL each time. For the same compound, the MIC in the data set on Candida albicans [8] is more than 31.3 µg/mL; with Candida albicans [9], 31.3 µg/mL (≈ 67.7 µM); against Aspergillus terreus, more than 31.3 µg/mL; in the data set on Candida albicans [11], 7.8 µg/mL (≈ 16.9 µM); in the data set with Pichia kudriavzevii it was more than 31.3 µg/mL; against Aspergillus flavus, more than 31.3 µg/mL. This compound yielded an MIC in the data set with Candida parapsilosis of more than 31.3 µg/mL. The result in the data set on Enterococcus, in the data set on Staphylococcus aureus and in the data set on Listeria monocytogenes was inactive.

On to `Clc1ccc(N/N=C/c2ccc(-c3ccc(/C=N/Nc4ccc(Cl)cc4)cc3)cc2)cc1`, for which the MIC with Candida albicans [1], against Aspergillus nidulans, against Candida albicans [3], against Nakaseomyces glabratus, in the data set with Candida albicans [5] and in the data set on Candida albicans [6] was more than 31.3 µg/mL in each case. The minimum inhibitory concentration (MIC) in the data set on Candida albicans [8] was more than 31.3 µg/mL; against Candida albicans [9] it was more than 31.3 µg/mL; in the data set with Aspergillus terreus, 31.3 µg/mL (≈ 68.1 µM); against Candida albicans [11], more than 31.3 µg/mL; against Pichia kudriavzevii, 31.3 µg/mL (≈ 68.1 µM); against Aspergillus flavus, more than 31.3 µg/mL. Further, the MIC with Candida parapsilosis was determined as 31.3 µg/mL (≈ 68.1 µM). In addition, the outcome with Enterococcus, in the data set on Staphylococcus aureus and in the data set with Listeria monocytogenes was inactive.

`Fc1cccc(N/N=C/c2ccc(-c3cccc(/C=N/Nc4cccc(F)c4F)c3)cc2)c1F`: the MIC against Candida albicans [1], in the data set with Aspergillus nidulans, in the data set on Candida albicans [3], with Nakaseomyces glabratus, against Candida albicans [5] and against Candida albicans [6] was more than 31.3 µg/mL in each case. Also, the MIC in the data set with Candida albicans [8], with Candida albicans [9], with Aspergillus terreus, in the data set with Candida albicans [11], in the data set with Pichia kudriavzevii and against Aspergillus flavus was more than 31.3 µg/mL throughout. The same compound came in with an MIC against Candida parapsilosis of more than 31.3 µg/mL. For the same compound, the outcome with Enterococcus, in the data set with Staphylococcus aureus and with Listeria monocytogenes was inactive.

For `CC(C)Oc1ccc(N/N=C/c2ccc(-c3ccc(/C=N/Nc4ccc(OC(C)C)cc4)cc3)cc2)cc1`, the MIC in the data set on Candida albicans [1], in the data set with Aspergillus nidulans, with Candida albicans [3], with Nakaseomyces glabratus, against Candida albicans [5] and against Candida albicans [6] was more than 31.3 µg/mL throughout. The MIC in the data set with Candida albicans [8], with Candida albicans [9], against Aspergillus terreus, in the data set with Candida albicans [11], in the data set with Pichia kudriavzevii and against Aspergillus flavus was more than 31.3 µg/mL in each case. In the data set with Candida parapsilosis, this compound displayed an MIC of more than 31.3 µg/mL. Further, the result in the data set on Enterococcus, in the data set on Staphylococcus aureus and with Listeria monocytogenes was inactive.

As to `N#Cc1ccc(N/N=C/c2ccc(-c3ccc(/C=N/Nc4ccc(C#N)cc4)cc3)cc2)cc1`, the MIC in the data set with Candida albicans [1] is more than 31.3 µg/mL; in the data set with Aspergillus nidulans, more than 31.3 µg/mL; against Candida albicans [3], more than 31.3 µg/mL; against Nakaseomyces glabratus it was more than 31.3 µg/mL; with Candida albicans [5], more than 31.3 µg/mL; in the data set with Candida albicans [6] it was 31.3 µg/mL (≈ 71.1 µM). Moreover, the MIC in the data set with Candida albicans [8] was more than 31.3 µg/mL; in the data set on Candida albicans [9] it was more than 31.3 µg/mL; in the data set with Aspergillus terreus it was 31.3 µg/mL (≈ 71.1 µM); with Candida albicans [11], more than 31.3 µg/mL; in the data set with Pichia kudriavzevii, more than 31.3 µg/mL; in the data set on Aspergillus flavus, more than 31.3 µg/mL. This compound showed an MIC in the data set on Candida parapsilosis of more than 31.3 µg/mL. The result in the data set on Enterococcus, in the data set on Staphylococcus aureus and in the data set on Listeria monocytogenes was inactive.

Turning to `Fc1cc(F)cc(N/N=C/c2ccc(-c3ccc(/C=N/Nc4cc(F)cc(F)c4)cc3)cc2)c1`, the MIC with Candida albicans [1], against Aspergillus nidulans, against Candida albicans [3], against Nakaseomyces glabratus, against Candida albicans [5] and in the data set on Candida albicans [6] was more than 31.3 µg/mL in each case. In addition, the MIC in the data set on Candida albicans [8] is more than 31.3 µg/mL; in the data set on Candida albicans [9], more than 31.3 µg/mL; with Aspergillus terreus, more than 31.3 µg/mL; in the data set on Candida albicans [11], 15.6 µg/mL (≈ 33.7 µM); against Pichia kudriavzevii, more than 31.3 µg/mL; with Aspergillus flavus, more than 31.3 µg/mL. The compound further registered an MIC in the data set with Candida parapsilosis of more than 31.3 µg/mL. Further, the outcome with Enterococcus, with Staphylococcus aureus and with Listeria monocytogenes was inactive.

The values are drawn from ChEMBL document CHEMBL4411307, “N,N'-diaryl-bishydrazones in a biphenyl platform: Broad spectrum antifungal agents” (Eur J Med Chem, 2019).
